We go through 24 compounds from patent US20240317752A1, “6-SUBSTITUTED-9H-PURINE DERIVATIVES AND RELATED USES” (Black Diamond Therapeutics, Inc., priority 2021, published 2024).

This test concerns the target T1, BaF3 BRAF-KIAA1549 fusion cells (Homo sapiens, UniProt P15056).
T1 construct: The BRAF-KIAA1549 fusion mutant was subcloned into pMXs-IRES-Blasticidin (RTV-016, Cell Biolabs, San Diego, CA); fused on or other part: Q9HCM3 (UPF0606 protein KIAA1549)
In words: BaF3 BRAF-KIAA1549 fusion cell proliferation assay (CellTiterGlo). Conditions: 96 hours incubation, potency code. The format is cell-based. The procedure, abridged: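 BaF3 cells stably transduced with a BRAF-KIAA1549 fusion, blasticidin-selected and growing without IL-3, were treated with compound for 96 h in RPMI/10% heat-inactivated FBS. Viability read as ATP content by CellTiterGlo luminescence, normalised to DMSO-treated cells. IC50 by Levenberg-Marquardt fit.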

T1 sequence (P15056 whole entry, change not shown, the tested form may be a part): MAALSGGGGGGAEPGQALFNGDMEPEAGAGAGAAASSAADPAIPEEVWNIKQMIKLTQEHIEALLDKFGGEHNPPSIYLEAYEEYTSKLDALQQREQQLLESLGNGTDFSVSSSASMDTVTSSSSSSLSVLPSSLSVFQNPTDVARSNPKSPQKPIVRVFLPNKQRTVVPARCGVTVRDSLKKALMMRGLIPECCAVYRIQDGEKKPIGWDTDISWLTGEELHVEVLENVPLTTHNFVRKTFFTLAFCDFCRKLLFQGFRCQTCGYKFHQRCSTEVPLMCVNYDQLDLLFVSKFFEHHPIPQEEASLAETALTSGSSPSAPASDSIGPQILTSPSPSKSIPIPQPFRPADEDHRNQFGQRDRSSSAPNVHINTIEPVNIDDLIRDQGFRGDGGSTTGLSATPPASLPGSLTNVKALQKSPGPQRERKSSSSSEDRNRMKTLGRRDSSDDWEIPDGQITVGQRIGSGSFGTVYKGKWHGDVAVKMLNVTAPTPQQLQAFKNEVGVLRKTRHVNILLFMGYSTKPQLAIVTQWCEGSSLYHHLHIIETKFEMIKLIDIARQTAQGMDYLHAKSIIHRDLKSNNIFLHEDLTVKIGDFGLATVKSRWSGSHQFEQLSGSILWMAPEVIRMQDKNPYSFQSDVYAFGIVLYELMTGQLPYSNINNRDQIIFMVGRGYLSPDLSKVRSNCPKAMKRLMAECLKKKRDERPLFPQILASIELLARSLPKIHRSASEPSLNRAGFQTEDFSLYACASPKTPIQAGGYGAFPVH

Consider `Cc1ccc(NC(=O)c2nccc(C(F)(F)F)c2C)cc1Nc1ncccc1-c1ncnc2[nH]cnc12` [Compound I-65, N-(3-((3-(9H-purin-6-yl)pyridin-2-yl)amino)-4-methylphenyl)-3-methyl-4-(trifluoromethyl)picolinamide], for which the GI50 (usually the concentration at which growth is held to half of that of the control) is < 20 nM.
To `Cc1ccc(NC(=O)c2ccnc(C3(C#N)CCC3)c2)cc1Nc1ncccc1-c1ncnc2[nH]cnc12` [Compound I-66, N-(3-((3-(9H-purin-6-yl)pyridin-2-yl)amino)-4-methylphenyl)-2-(1-cyanocyclobutyl)isonicotinamide] belongs < 20 nM; to `Cc1ccc(-c2ncnc3[nH]cnc23)c(Nc2cc(NC(=O)c3cc(C(F)(F)F)ccn3)ccc2C)n1` [Compound I-67, N-(4-methyl-3-((6-methyl-3-(9H-purin-6-yl)pyridin-2-yl)amino)phenyl)-4-(trifluoromethyl)picolinamide], 20 to 100 nM; to `CCc1ccc(NC(=O)c2cc(C(F)(F)F)ccn2)cc1Nc1ncccc1-c1ncnc2[nH]cnc12` [Compound I-68, N-(3-((3-(9H-purin-6-yl)pyridin-2-yl)amino)-4-ethylphenyl)-4-(trifluoromethyl)picolinamide], 20 to 100 nM.
Next, `Cc1ccc(NC(=O)c2ccc(Cl)c(OC(F)(F)F)c2)cc1Nc1ncccc1-c1ncnc2[nH]cnc12` [Compound I-69, N-(3-((3-(9H-purin-6-yl)pyridin-2-yl)amino)-4-methylphenyl)-4-chloro-3-(trifluoromethoxy)benzamide]: 20 to 100 nM.
Next, `Cc1ccc(NC(=O)c2cnc(C(F)(F)F)c(C#N)c2)cc1Nc1ncccc1-c1ncnc2[nH]cnc12` [Compound I-70, N-(3-((3-(9H-purin-6-yl)pyridin-2-yl)amino)-4-methylphenyl)-5-cyano-6-(trifluoromethyl)nicotinamide]: 20 to 100 nM; `Cc1cnc(C(=O)Nc2ccc(C)c(Nc3ncccc3-c3ncnc4[nH]cnc34)c2)cc1C#N` [Compound I-71, N-(3-((3-(9H-purin-6-yl)pyridin-2-yl)amino)-4-methylphenyl)-4-cyano-5-methylpicolinamide]: 20 to 100 nM; `Cc1c(F)cc(NC(=O)c2ccnc(C3(F)CC3)c2)cc1Nc1ncccc1-c1ncnc2[nH]cnc12` [Compound I-72, N-(3-((3-(9H-purin-6-yl)pyridin-2-yl)amino)-5-fluoro-4-methylphenyl)-2-(1-fluorocyclopropyl)isonicotinamide]: < 20 nM.
As to `Cc1ccc(NC(=O)c2ccc3c(c2)OCO3)cc1Nc1ncccc1-c1ncnc2[nH]cnc12` [Compound I-74, N-(3-((3-(9H-purin-6-yl)pyridin-2-yl)amino)-4-methylphenyl)benzo[d][1,3]dioxole-5-carboxamide], the concentration for 50% growth inhibition (GI50) is 20 to 100 nM.
Next, `Cc1ccc(NC(=O)CC2CCOC(C(F)(F)F)C2)cc1Nc1ncccc1-c1ncnc2[nH]cnc12` (stereo not drawn) [Compound I-75, N-(3-((3-(9H-purin-6-yl)pyridin-2-yl)amino)-4-methylphenyl)-2-(2-(trifluoromethyl)tetrahydro-2H-pyran-4-yl)acetamide]: 20 to 100 nM; `Cc1ccc(NC(=O)CC2CCNC(C(F)(F)F)C2)cc1Nc1ncccc1-c1ncnc2[nH]cnc12` (stereo not drawn) [Compound I-76, N-(3-((3-(9H-purin-6-yl)pyridin-2-yl)amino)-4-methylphenyl)-2-(2-(trifluoromethyl)piperidin-4-yl)acetamide]: ≥ 500 nM.
To `Cc1ccc(NC(=O)CN2CCCC(C(F)(F)F)C2)cc1Nc1ncccc1-c1ncnc2[nH]cnc12` (stereo not drawn) [Compound I-77, N-(3-((3-(9H-purin-6-yl)pyridin-2-yl)amino)-4-methylphenyl)-2-(3-(trifluoromethyl)piperidin-1-yl)acetamide] belongs < 20 nM; to `Cc1ccc(NC(=O)Cn2cnc(C(F)(F)F)n2)cc1Nc1ncccc1-c1ncnc2[nH]cnc12` [Compound I-78, N-(3-((3-(9H-purin-6-yl)pyridin-2-yl)amino)-4-methylphenyl)-2-(3-(trifluoromethyl)-1H-1,2,4-triazol-1-yl)acetamide], 20 to 100 nM; to `Cc1ccc(C(=O)Nc2cc(C(C)(C)C)nn2C2CC2)cc1Nc1ncccc1-c1ncnc2[nH]cnc12` [Compound I-79, 3-((3-(9H-purin-6-yl)pyridin-2-yl)amino)-N-(3-(tert-butyl)-1-cyclopropyl-1H-pyrazol-5-yl)-4-methylbenzamide], 100 to 500 nM.
To `Cc1ccc(NC(=O)c2cccc(N(C)C)c2)cc1Nc1ncccc1-c1ncnc2[nH]cnc12` [Compound I-80, N-(3-((3-(9H-purin-6-yl)pyridin-2-yl)amino)-4-methylphenyl)-3-(dimethylamino)benzamide] belongs < 20 nM; to `Cc1ccc(NC(=O)c2ccc(Cl)c(N(C)C)c2)cc1Nc1ncccc1-c1ncnc2[nH]cnc12` [Compound I-81, N-(3-((3-(9H-purin-6-yl)pyridin-2-yl)amino)-4-methylphenyl)-4-chloro-3-(dimethylamino)benzamide], < 20 nM.
`Cc1ccc(NC(=O)CC2CCCCCO2)cc1Nc1ncccc1-c1ncnc2[nH]cnc12` (stereo not drawn) [Compound I-82, N-(3-((3-(9H-purin-6-yl)pyridin-2-yl)amino)-4-methylphenyl)-2-(oxepan-2-yl)acetamide]: the GI50 was < 20 nM.
Take `Cc1ccc(NC(=O)CC2CCNCCO2)cc1Nc1ncccc1-c1ncnc2[nH]cnc12` (stereo not drawn) [Compound I-83, N-(3-((3-(9H-purin-6-yl)pyridin-2-yl)amino)-4-methylphenyl)-2-(1,4-oxazepan-7-yl)acetamide]: the concentration for 50% growth inhibition (GI50) was ≥ 500 nM.
With `Cc1ccc(NC(=O)CN2CCN3CCC2C3)cc1Nc1ncccc1-c1ncnc2[nH]cnc12` (stereo not drawn) [Compound I-89, N-(3-((3-(9H-purin-6-yl)pyridin-2-yl)amino)-4-methylphenyl)-2-(1,4-diazabicyclo[3.2.1]octan-4-yl)acetamide], the GI50 was ≥ 500 nM.
Next, `Cc1ccc(NC(=O)c2cc(C(F)F)c(C)cn2)cc1Nc1ncccc1-c1ncnc2[nH]cnc12` [IA-90, N-(3-((3-(9H-purin-6-yl)pyridin-2-yl)amino)-4-methylphenyl)-4-(difluoromethyl)-5-methylpicolinamide]: 20 to 100 nM; `Cc1ccc(NC(=O)c2ncc(C)c(C(F)(F)F)c2F)cc1Nc1ncccc1-c1ncnc2[nH]cnc12` [IA-91, N-(3-(3-(9H-purin-6-yl)pyridin-2-ylamino)-4-methylphenyl)-3-fluoro-5-methyl-4-(trifluoromethyl)picolinamide]: 20 to 100 nM.
To `CCc1cnc(C(=O)Nc2ccc(C)c(Nc3ncccc3-c3ncnc4[nH]cnc34)c2)cc1C(F)(F)F` [IA-92, N-(3-(3-(9H-purin-6-yl)pyridin-2-ylamino)-4-methylphenyl)-5-ethyl-4-(trifluoromethyl)picolinamide] belongs 20 to 100 nM.
Next, `Cc1cc(C(F)(F)F)cc(C(=O)Nc2ccc(C)c(Nc3ncccc3-c3ncnc4[nH]cnc34)c2)n1` [IA-93, N-(3-((3-(9H-purin-6-yl)pyridin-2-yl)amino)-4-methylphenyl)-6-methyl-4-(trifluoromethyl)picolinamide]: 20 to 100 nM; `Cc1ccc(NC(=O)c2cc(C(F)(F)F)c(OC3CN(C)C3)cn2)cc1Nc1ncccc1-c1ncnc2[nH]cnc12` [IA-94, N-(3-(3-(9H-purin-6-yl)pyridin-2-ylamino)-4-methylphenyl)-5-(1-methylazetidin-3-yloxy)-4-(trifluoromethyl)picolinamide]: 100 to 500 nM.
